The source made the active and inactive calls. No rule for the calls is given here.
Target: glucose-6-phosphate dehydrogenase-6-phosphogluconolactonase (Plasmodium falciparum 3D7)
Test: concentration-dependent PfGluPho enzyme inhibition – biochemical, fluorescence intensity, dose response (AID 504765)
Settings: Recombinant PfG6PD enzyme, fluorescence intensity (NADPH)

| Compound | IC50 |
| --- | --- |
| O=S(c1ccccc1O)S(=O)c1ccccc1O (configuration not stated) | 4.89 µM |
| CCC(=O)OCOc1ccc(/C=C2/CCC(CN(C)C)C2=O)cc1 (configuration not stated) | 6.86 µM |
| O=c1[nH]c2ccc(NCc3ccccc3OCc3ccc(Cl)cc3)cc2[nH]1 | > 80 µM (inactive) |
| CCN(CC)CCNC(=O)CCCCn1c(=S)[nH]c2c([nH]c3ccc(OC)cc32)c1=O | inactive |
| O=C(Nc1nnc(S(=O)(=O)N2CCOCC2)s1)c1cccc(Br)c1 | 5.58 µM |
| C[C@H](NC(=O)c1cc2c(cn1)[nH]c1ccccc12)C(=O)O | inactive |
| Cc1ccc(C(=O)NCC(=O)NCC(=O)OCC(=O)c2ccc([N+](=O)[O-])cc2)cc1 | 5.92 µM |
| CCC(c1ccc(O)c(O)c1)C(CC)c1ccc(O)c(O)c1 (configuration not stated) | inactive |
| Cc1c(Cl)c([N+](=O)[O-])nn1Cc1ccc(C(=O)N/N=C\c2cccc(Br)c2)o1 | 9.37 µM |
| O=C(Cc1ccccc1)NCC(=O)OCC(=O)c1ccc([N+](=O)[O-])cc1 | 10.6 µM |
| CCOC(=O)CSc1nnc(NC(=O)c2cccc([N+](=O)[O-])c2)s1 | 6.49 µM |
| COc1ccc(CCn2c(NN=C3CCCC3)nc3c2c(=O)[nH]c(=O)n3C)cc1 | 9.56 µM |
| COc1c(O)c(O)c2oc(-c3ccccc3)cc(=O)c2c1OC | 10.6 µM |
| CC1(C)CC2(CC(c3ccccc3F)c3ccc(O)c(O)c3O2)NC(=S)N1 (configuration not stated) | 12.8 µM |
| O=C1NC(=O)N(c2ccccc2)C(=O)/C1=C/c1ccc([N+](=O)[O-])s1 | 10 µM |
| Cc1cc(C)c2c(=O)n(CC(=O)N3CCC(N4CCCCC4)CC3)sc2n1 | 3.88 µM |
| O=C(Nc1nnc(S(=O)(=O)N2CCOCC2)s1)c1ccc(F)cc1 | 11.4 µM |
| Cn1cc(S(=O)(=O)CC(=O)N2CCc3ccccc32)c2ccccc21 | inactive |
| COc1cc(CNc2ccc(N3CCCC3)cc2)cc(Cl)c1OC | 3.64 µM |
| O=C(CCSCCC(=O)NN=Cc1ccccc1)NN=Cc1ccccc1 | 7.76 µM |
| CCOc1cc(CNc2ccc(N3CCCC3)cc2)cc(Cl)c1OC | 3.87 µM |
| CN1CCN(C(=S)C(=O)Nc2ccc(Br)cc2)CC1 | 7.26 µM |
| COc1ccc(-n2sc3ccccc3c2=O)cc1 | 1.49 µM |
| O=C1CCC[C@@H]2[C@@H](Cc3ccccc3)[C@H](N3CCN(c4ccccc4)CC3)C[C@@H]3CCN1[C@@H]32 | 9.43 µM |

| Compound | IC50 |
| --- | --- |
| O=C(CSc1nc2cc(Cl)ccc2s1)c1ccco1 | 6.04 µM |
| COc1ccc(N2CSC3=C(C#N)C(c4cc(OC)c(OC)cc4OC)CC(=O)N3C2)c(OC)c1 (configuration not stated) | 3.13 µM |
| CC1(C)CN(c2ccccc2)N(C(=O)c2ccc(C#N)cc2)C1=O | 9.37 µM |
| Cc1ccc(S(=O)(=O)NNc2ccccc2)cc1 | inactive |
| O=S(=O)(Nc1c(O)ccc2ccccc12)c1ccccc1 | 4.49 µM |
| O=C(CBr)c1ccc([N+](=O)[O-])c(CS(=O)(=O)c2ccc(Cl)cc2)c1 | 10.5 µM |
| COc1cc(N=c2ssnc2Cl)cc(OC)c1OC | 15.5 µM |
| O=C(COC(=O)c1ccc2c(c1[N+](=O)[O-])C(=O)c1ccccc1C2=O)NC1CC1 | 16.4 µM |
| CC(C)c1cc2c(c(O)c1O)[C@@]13CCCC(C)(C)C1CC2OC3=O (some centres not stated) | 4.95 µM |
| CC1CCc2c(nc3sc4c(c3c2N)CCCC4)C1 (configuration not stated) | 14.9 µM |
| Cc1nc2ccccn2c1-c1ccnn1S(=O)(=O)c1ccc(F)cc1 | 15.2 µM |
| Cc1ccc(C(=O)/C=C/C(=O)c2ccc(C)cc2)cc1 | 7.28 µM |
| CCc1cc(-c2n[nH]c(C)c2-c2nc3ccccc3n2C)c(O)cc1O | inactive |
| COc1cc(N=c2ssnc2Cl)c(OC)cc1Cl | 13.5 µM |
| CC(C)Cn1c([N+](=O)[O-])nc2c1c(=O)[nH]c(=O)n2C | 14.3 µM |
| CCn1c([N+](=O)[O-])nc2c1c(=O)[nH]c(=O)n2C | 12.2 µM |
| Cc1ccc(-c2nn(C)c(=O)c3ccccc23)cc1CNC(=O)/C=C/c1ccccc1 | 4.14 µM |
| O=C1/C(=C\c2ccc([N+](=O)[O-])cc2)CS(=O)(=O)C/C1=C/c1ccc([N+](=O)[O-])cc1 | 2.95 µM |
| CCc1ccc(S(=O)(=O)Nc2cc(SCC(=O)O)c(O)c3ccccc23)cc1 | 5.63 µM |
| CC(=O)Nc1ccc(S(=O)(=O)/N=C2\C(=O)c3ccccc3C([O-])=C2n2cc[n+](-c3ccccn3)c2)cc1 | 12.9 µM |
| COc1ccc(S(=O)(=O)Nc2cc(SCC(=O)O)c(O)c3ccccc23)cc1 | 2.03 µM |
| Cn1c(-c2sccc2OCc2cccc(C(F)(F)F)c2)n[nH]c1=S | inactive |
| Cc1ccsc1/C=N/NC(=O)c1cccc(S(=O)(=O)Nc2ccccc2Cl)c1 | 13.2 µM |
| Cc1ccc(NC(=O)c2cc(C)n(-c3ccccc3)c2C)cc1 | 14.1 µM |

| Compound | IC50 |
| --- | --- |
| CN1/C(=C\C(=O)c2cccs2)Sc2ccccc21 | 7.44 µM |
| Cc1ccc(-n2c(N)c(C(=O)N3CCN(C)CC3)sc2=S)cc1 | 16 µM |
| CCC(C)c1ccccc1OCCn1ccnc1 (configuration not stated) | 3.39 µM |
| Cn1c(=O)[nH]c(=O)c2c1nc(SCCN1CCCCC1)n2CCCc1ccccc1 | 14.2 µM |
| O=c1c2ccccc2sn1-c1nccs1 | 1.69 µM |
| Cc1ccc(S(=O)(=O)SCCCSS(=O)(=O)c2ccc(C)cc2)cc1 | 4.64 µM |
| COc1cc(N)c2ncccc2c1SC | inactive |
| O=c1[nH]c2ccccc2n2c(-c3ccccc3)nnc12 | 1.65 µM |
| C=CCN=c1scc(-c2ccco2)n1/N=C/c1ccc(O)c(O)c1O | inactive |
| CN1CCc2cc(O)cc3c2[C@H]1Cc1ccc(O)c(O)c1-3 | 15 µM |
| COc1ccc(OCc2nnc3n2N=C(c2ccccc2)C(CC(=O)O)S3)cc1 (configuration not stated) | inactive |
| COc1cc(N)c2ncccc2c1OC | 16.6 µM |
| CCn1c(SCc2nc3scc(-c4ccccc4)c3c(=O)[nH]2)nnc1-c1cccs1 | 17.3 µM |
| O=C(COC(=O)c1cnccn1)c1ccc([N+](=O)[O-])cc1 | 12.2 µM |
| Cc1cc(C)nc(SSc2nc(C)cc(C)n2)n1 | 3.06 µM |
| c1ccc(SSc2ccccn2)nc1 | 9.82 µM |
| CCN1CCN(C(=S)c2ccc(O)cc2)CC1 | inactive |
| Cc1ccc(C(=O)Nc2nnc(S(=O)(=O)N3CCC(C)CC3)s2)cc1 | inactive |
| COc1ccc(-c2cn3cc(C)ccc3n2)cc1Br | 9.91 µM |
| c1cncc(CNc2ccc3c(c2)OCO3)c1 | 13.9 µM |
| O=C(Nc1ccccc1C(=O)N/N=C/c1ccco1)c1ccccc1Cl | 10.6 µM |
| NCCNc1ccc(C(=O)N2c3ccccc3Sc3ccccc32)cc1[N+](=O)[O-] | 13.3 µM |
| O=C(CCC(=O)Nc1ccccc1Cl)N/N=C/c1ccccc1 | 3.17 µM |
| CC1=CC(=NOC(=O)/C=C/c2ccccc2)C=C(C)C1=O | 13.9 µM |

| Compound | IC50 |
| --- | --- |
| Cc1cnc(C=NNC(N)=S)c2cccc(N)c12 | 1.72 µM |
| COc1cc(NCCCn2ccc(NC(=O)OCc3ccccc3)nc2=O)cc(OC)c1OC | 17.6 µM |
| CCC(C)N(CCNC(=O)c1ccc2c(c1)NC(=O)c1ccccc1S2)C1CCCCC1 (configuration not stated) | 6.48 µM |
| CCN1CCN(C(=S)c2ccc(Cl)c(Cl)c2)CC1 | inactive |
| Cc1[nH]c(=S)c(C#N)c(C)c1CCC#N | inactive |
| Cc1cc(C)c2c(=O)n(CC(=O)NC3CCCC3)sc2n1 | 1.97 µM |
| CC(=O)c1cccc(NC(=O)c2cnn(-c3ccccc3)c2C)c1 | 8.46 µM |
| Oc1ccc(/C=N/N=C(c2ccccc2)c2ccccc2)c(O)c1O | 13.6 µM |
| C=CCc1ccccc1OCC(=O)N/N=C/c1ccccc1OCC | 6.34 µM |
| CC(C)(C)c1ccc(O)c(O)c1 | inactive |
| COc1cc(CN2CCN(CCCc3ccccc3)C(CCO)C2)cc(OC)c1O (configuration not stated) | 7.68 µM |
| O=C(O)CSc1cc(NS(=O)(=O)c2cccc([N+](=O)[O-])c2)c2ccccc2c1O | 1.34 µM |
| Cc1ccc(NC(=O)c2ccc(Cl)c(N3C(=O)C=CC3=O)c2)cc1 | 7.52 µM |
| CCS(=O)(=O)N1CCN(c2ccc([N+](=O)[O-])c(NC(C)c3ccccc3)c2)CC1 (configuration not stated) | 14.8 µM |
| CN(C)Cc1cc(O)c(CN(C)C)cc1O | 2.03 µM |
| CNCc1ccccc1Sc1cc(O)ccc1O | 2.23 µM |
| O=C(Cn1sc2ccccc2c1=O)Nc1ccccc1 | 1.97 µM |
| Cc1ccc(-c2c(C(=O)N/N=C/c3cccs3)nnn2-c2nonc2N)cc1 | 3.91 µM |
| NCCc1cc(O)c(O)cc1O | 3.51 µM |
| Brc1cc2[nH]cnc2c2ccccc12 | 17.6 µM |
| CC(C)c1nnc(NC(=O)c2cccc(-n3cnnn3)c2)s1 | 5.55 µM |
| COC1=C(Br)C(=O)c2nc(C)ccc2C1=O | 4.24 µM |
| Cc1c(C(=O)N(Cc2ccccc2Cl)C2CCS(=O)(=O)C2)oc2ccccc12 (configuration not stated) | 4.36 µM |
| COc1c(O)ccc2c1CN1CCc3cc4c(cc3C1C2)OCO4 (configuration not stated) | 15.5 µM |

| Compound | IC50 |
| --- | --- |
| CN=c1scc(C)n1/N=C/c1ccc(O)c(O)c1O | 3.98 µM |
| COc1ccc(N=C2C(=S)N(c3ccc(OC)cc3)C(=NS(=O)(=O)c3ccccc3)N2c2ccccc2)cc1 | 2.38 µM |
| [O-]/[N+](=C\c1ccncc1)c1ccccc1 | 9.54 µM |
| CC(C)(C)NC(=O)COc1ccc(CNc2ccc3[nH]c(=O)[nH]c3c2)cc1 | 11.7 µM |
| COCCNC(=S)Nc1ccc(N2CCOCC2)c(S(=O)(=O)Nc2ccc(Cl)cc2)c1 | 19.4 µM |
| O=C(CNC(=O)c1cccs1)OCC(=O)c1ccc([N+](=O)[O-])cc1 | 13.9 µM |
| CCCCCCCCSC1=CC(=O)C(OC)=C(OC)C1=O | 1.71 µM |
| CCN(CC)c1nc(N)nc(NS(=O)(=O)c2ccc(Cl)cc2)n1 | 6.15 µM |
| O=C(CNC(=O)c1ccc(Br)cc1)NCC(=O)OCC(=O)c1ccc([N+](=O)[O-])cc1 | 18.1 µM |
| COc1cc(NCCCn2cnc(C(=O)Nc3ccc(C)c(C)c3)n2)cc(OC)c1OC | > 80 µM (inactive) |
| O=S(=O)(Nc1cccc2cccnc12)c1ccccc1 | 7.08 µM |
| CC1=NOC(=O)/C1=C\c1ccc(-c2ccccc2Br)o1 | inactive |
| Cc1ccccc1N/C(SCc1cccc(Br)c1)=C(/C#N)C(N)=O | 5.9 µM |
| Cc1cc(C)c2c(=O)n(CC(=O)Nc3ccc(Cl)cc3)sc2n1 | 2.51 µM |
| CC1CN(c2ccccc2)NC1=O (configuration not stated) | 2.34 µM |
| S=c1ncc2[nH]c(=S)[nH]c2[nH]1 | 4.41 µM |
| O=C(Cn1sc2ccccc2c1=O)Nc1ccc(F)cc1 | 2.56 µM |
| O=C(Nc1ccc([N+](=O)[O-])cc1Cl)c1cc(Cl)ccc1O | 13.7 µM |
| COc1cc(CN2CCCC(C(=O)c3ccc4c5c(cccc35)CC4)C2)cc(OC)c1O (configuration not stated) | 3.44 µM |
| O=S(=O)(NCc1csc(-c2ccccc2)n1)c1ccc(Cl)s1 | 6.28 µM |
| Cc1ccc(S(=O)(=O)Nc2nc(C)c(C(=O)N/N=C/c3ccccc3)s2)cc1 | 4.58 µM |

— PubChem BioAssay AID504765 (Sanford-Burnham Center for Chemical Genomics, 2011)
